# Laboratory results reported in patent US20140349943A1, “TOPICAL FORMULATIONS OF CHEMERIN C15 PEPTIDES FOR THE TREATMENT OF DERMATOLOGICAL CONDITIONS” (priority 2011, published 2014).
# Several values for one entry are separate records, joined by “and”; a condition that tells them apart may be missing. Identical values can stand only once. Peptide text beside a SMILES is read from it.
# Tests used:
# [1] = system: IFNγ/LPS stimulated human macrophages; test: Cytokine secretion by IFNγ/LPS stimulated human macrophages (Luminex); type: cell-based
# From the text: In this example, the ability of human chemerin C15 to inhibit secretion of cytokines from activated human macrophages was examined. For this experiment, the activity of the human chemerin C15 peptide […] (SEQ ID NO: 1) was compared to that of the human chemerin C17 peptide […] (SEQ ID NO: 25). The C15 and C17 peptides were synthesized by solid phase synthesis using BOP coupling of FMOC protected amino acids with final cleavage from the resin with TFA. Peptides were purified by reverse phase C18 chromatography using a water/acetonitrile gradient.
# Human macrophages were derived from human CD14+ monocytes obtained from 3 donors. On Day 1, the isolated monocytes were thawed and seeded in triplicate for each group in 1 ml RPMI 1640 GlutaMAX™ media (supplemented with 10% FBS, 100 U/ml penicillin, 100 μg/ml streptomycin, 0.05 μM mercaptoethanol, 1% NEAA and 1% sodium pyruvate) per well of a 24 well cell culture dish at a cell concentration of 5×10^5 cells/ml. M-CSF was added to each well to give a final concentration of 25 ng/ml. Cells were grown for 7 days at 37° C. with 5% CO2 to differentiate the cells into macrophages. Media and M-CSF were replaced after 4 days.
# Following differentiation, the media containing M-CSF was removed. The cells were washed and vehicle control, dexamethasone, C15 or C17 were added to the appropriate wells. The test peptides were dissolved in 50% DMSO/water prior to addition. C-15 (MW 1669; 16.7 mg/ml) was added to a final concentration of […] and C17 (MW 1904; 19.0 mg/ml) was added to a final concentration of 1 μM. Dexamethasone was added to a final concentration of 1 μM. Following addition to the wells, the plates were incubated at 37° C. with 5% CO2 for 1 hour. An equal volume of complete media was added to the non-treated wells. Control or test treatments were maintained at the correct concentration throughout the assay.
# IFNγ (final concentration 20 ng/ml) was then added to the appropriate wells. Following IFNγ addition, the plates were incubated at 37° C. with 5% CO2 for 4 hours. The concentration of vehicle control, test treatments or dexamethasone was maintained during IFNγ stimulation. LPS (final concentration 10 ng/ml) was then added to the appropriate wells. Following LPS addition, the plates were incubated at 37° C. with 5% CO2 for 15 hours. After 6 hours, ˜60 μl of culture supernatant was removed from all wells and stored at −80° C. for analysis. The concentration of vehicle control, test treatments or dexamethasone was maintained during LPS stimulation.
# At 15 hours post LPS stimulation, the remaining cell culture supernatant was harvested and stored at −80° C. until assayed. The concentration of vehicle control, test treatments or dexamethasone was maintained until culture termination.
# Cell culture supernatants taken at 6 hours and 15 hours post LPS addition were assayed for the production of RANTES, TNFα, IL-1β, IL-6, IL-10, IL-12p40 (subunit common to IL-12 and IL-23) and IL-15 (negative control) using Luminex® technology (Procarta human cytokine kit; Panomics) following the manufacturer's instructions.
# In this experiment, the importance of the FYFP motif (SEQ ID NO: 2) in the human chemerin C15 peptide on anti-inflammatory activity was examined. The ability of the human chemerin C15 peptide […] (SEQ ID NO: 1) was compared to that of a substituted chemerin C15 peptide having the amino acid sequence […] (SEQ ID NO: 27), where the second phenylalanine in the peptide is modified to alanine. The experiment was performed as described in Example 1. 0.1 pM 0.5 pM and 1 pM concentrations of the C15 and C15 mutant peptides were tested. Cytokine expression was determined as described in Example 1.
# [2] = Franz cell skin penetration, C15 in 50% DMSO in water; type: in vitro ADME, human
# From the text: The objective of the study was to determine whether human C15 peptide would diffuse through in vitro human skin maintained under flow-through conditions in Franz cells with 50% DMSO in water. 50% DMSO is considered an acceptable maximum for penetration enhancement.
# The samples used in the study were mouse and human chemerin C15 peptides stored at −20 C°. The skin sample used was human skin obtained from mammoplasty. A frozen sample was stored at −20 C.° for 30 days. A fresh sample was obtained in tissue media and antibiotics and used within 3 days.
# 1. A 1% solution of mouse C15 in 50% DMSO in water was applied to previously frozen human skin to develop the HPLC method for subsequent tests with human C15. This was done in triplicate. 2. A 2% solution of human C15 in 50% DMSO in water was applied to fresh human skin and epidermis, dermis, and receptor fluid were analyzed for C15.
# Skin was rinsed, blotted dry, cut into circular pieces and conditioned in the Franz cell for 2 hours prior to C15 application. Flow-through, water-jacketed diffusion cells that exposed a skin area of 2.54 cm2 were used. The cells were maintained at 37° C., operated under static conditions and stirred at 700 rpm for 24 hr. PBS (pH=7.0) was used as the receptor fluid. C15 solutions in 50% DMSO in water was prepared on the day of the experiments.
# 400 μl of each C15 solution was pipetted in aliquots of 100 μl onto the skin surface and the diffusion cell sealed with parafilm. Diffusion cells were run in triplicate with a single control consisting of skin treated with vehicle only. Receptor fluid (≈5 mL) was collected at the end of 24 hours and concentrated by evaporation prior to analysis. The skin was blotted dry, tape-stripped three times to remove residual C15 and heat-separated at 50° C. into epidermis and dermis. Epidermis was sonicated in 5% TCA for 10 minutes and the supernatant analyzed. Dermis was minced and homogenized in 5% TCA and the supernatant concentrated and analyzed.
# For the mouse C15 experiment only the receptor fluid was analyzed.
# A reverse-phase HPLC method was developed to quantify Human C15 (Shimamura et al., 2009). The separation was achieved using a Phenomenex Gemini™ C18 column (Cat. No. 00B-4439-E0, 4.6×50 mm, 3 μm) at 40° C. in the Shimadzu 20A system. The mobile phase was mixed with (A) 0.1% formic in water and (B) 0.1% formic acid in acetonitrile. The separation was conducted using a gradient system of 80% A+20% B to 10% A+90% B (0-3 min) and 10% A+90% B (3-3.5 min) at a flow rate of 0.8 ml/min. The injection volume was 5 μl. The eluent was monitored at 275 nm Human C15 was observed as a single peak in the chromatogram with retention time at about 1.8 min. The quantification of Human C15 was achieved by external standard calibration. […]
# [3] = Example 3, 0.1 pM 0.5 pM and 1 pM tested, FIG. 3
# [4] = 2% human C15 in 50% DMSO, fresh human skin, % absorbed of the applied dose, listed as C15
smiles,measurement,setting,value
C[C@H](N)C(=O)NCC(=O)N[C@@H](CCC(=O)O)C(=O)N[C@@H](CC(=O)O)C(=O)N1CCC[C@H]1C(=O)N[C@@H](Cc1c[nH]cn1)C(=O)N[C@@H](CO)C(=O)N[C@@H](Cc1ccccc1)C(=O)N[C@@H](Cc1ccc(O)cc1)C(=O)N[C@@H](Cc1ccccc1)C(=O)N1CCC[C@H]1C(=O)NCC(=O)N[C@@H](CCC(N)=O)C(=O)N[C@@H](Cc1ccccc1)C(=O)N[C@@H](C)C(=O)O [C15 (human)] (H-AGEDPHSFYFPGQFA-OH; N-terminus and C-terminus assumed),inhibition of newly synthesized RANTES (difference between the 6 and 15 hour time points),[1]; 1 pM,approximately 90%
same,decrease in IL-10,[1]; C15 peptide treatment,~25%
same,percent inhibition of RANTES expression,[1]; [3],47%
same,percent inhibition of TNFα expression,[1]; [3],61%
same,inhibition of cytokine production/secretion in vitro,[1]; within 15 hours,40-60%
same,"% C15 in skin compartment, epidermis",[2]; [4],8.76% and 7.38% and 2.67%
same,"% C15 in skin compartment, receptor fluid",[2]; [4],0.02% and 0.09% and 0.01%
same,"penetration through human skin, in words","[2]; in vitro flow-through conditions, 50% DMSO in water",does penetrate through human skin
C[C@H](N)C(=O)NCC(=O)N[C@@H](CCC(=O)O)C(=O)N[C@@H](CC(=O)O)C(=O)N1CCC[C@H]1C(=O)N[C@@H](Cc1c[nH]cn1)C(=O)N[C@@H](CO)C(=O)N[C@@H](Cc1ccccc1)C(=O)N[C@@H](Cc1ccc(O)cc1)C(=O)N[C@@H](Cc1ccccc1)C(=O)N1CCC[C@H]1C(=O)NCC(=O)N[C@@H](CCC(N)=O)C(=O)N[C@@H](Cc1ccccc1)C(=O)N[C@@H](C)C(=O)N[C@@H](Cc1ccccc1)C(=O)N[C@@H](CO)C(=O)O [C17 (human)] (H-AGEDPHSFYFPGQFAFS-OH; N-terminus and C-terminus assumed),inhibition of cytokine production,[1]; 1 μM,did not exhibit any significant inhibition
CC(C)C[C@H](NC(=O)[C@H](Cc1ccccc1)NC(=O)[C@H](Cc1ccc(O)cc1)NC(=O)CNC(=O)[C@H](Cc1c[nH]cn1)NC(=O)[C@@H]1CCCN1C(=O)[C@H](CC(=O)O)NC(=O)[C@H](CCC(=O)O)NC(=O)CNC(=O)[C@H](C)N)C(=O)N1CCC[C@H]1C(=O)NCC(=O)N[C@@H](CCC(N)=O)C(=O)N[C@@H](Cc1ccccc1)C(=O)N[C@@H](C)C(=O)O [mC15] (H-AGEDPHGYFLPGQFA-OH; N-terminus and C-terminus assumed),C15 receptor fluid level,"[2]; 1% mouse C15 in 50% DMSO, frozen human skin",0.3%
